Earlier results on 1 molecule are cited in PubChem BioAssay AID1259410 (Chemical Carcinogenesis Research Information System (CCRIS), 2018).

In the series the test system is rodent tumor promotion studies, tumor incidence. As to the kind of experiment: CCRIS tumor promotion studies. The conditions noted are these: Route [Promoter]: DERMAL, Species: MOUSE.

On to `CCCCCCCCCCCCCC(=O)O[C@@H]1[C@@H](C)[C@@]2(O)[C@@H](C=C(CO)C[C@]3(O)C(=O)C(C)=C[C@@H]23)[C@@H]2C(C)(C)[C@]12OC(C)=O`, for which the outcome is listed as “skin: tumor” (Carcinogen: BENZO[B]FLUORANTHENE, 205-99-2, Doses [Carcinogen]: 0, 0.04, 0.12, 0.4 UMOL (TOTAL DOSE) APPLIED IN SUBDOSES 1/2 D FOR 5 WK, Doses [Carcinogen]: 0, 0.04, 0.12, 0.4 UMOL (TOTAL DOSE) APPLIED IN SUBDOSES 1/2 D FOR 5 WK, Doses [Promoter]: 2.5 UG IN 100 µL ACETONE 3/WK FOR 20 WK BEGINNING 10 D POST LAST CARCINOGEN DOSE (STUDY DURATION: 26 WK), Route [Carcinogen]: DERMAL, Strain/Sex: CD-1/FEMALE); “skin: tumor” (Carcinogen: BENZO[B]FLUORANTHENE, 205-99-2, Doses [Carcinogen]: 40, 120, 400 NMOL (TOTAL DOSE) APPLIED 1/2 D FOR 10 SUBDOSES, Doses [Carcinogen]: 40, 120, 400 NMOL (TOTAL DOSE) APPLIED 1/2 D FOR 10 SUBDOSES, Doses [Promoter]: 0, 2.5 UG IN 100 µL ACETONE 3/WK FOR 20 WK BEGINNING 10 D POST CARCINOGEN TREATMENT (STUDY DURATION: 22 WK), Route [Carcinogen]: DERMAL, Strain/Sex: CRL:CD-1/FEMALE); “skin: tumors” (Carcinogen: BENZO[B]FLUORANTHRENE, 205-99-2, Doses [Carcinogen]: 40, 100 NMOL TOTAL DOSES GIVEN IN 10 SUBDOSES 1/2 D IN 0.1 ML ACETONE, Doses [Promoter]: 2.5 UG IN 0.1 ML ACETONE 3/WK FOR 30 WK BEGINNING 10 D POST CARCINOGEN TREATMENT (STUDY DURATION: 34 WK), Route [Carcinogen]: DERMAL, Strain/Sex: CD-1/FEMALE); “skin: tumors” (Carcinogen: BENZO[J]FLUORANTHENE, 205-82-3, Doses [Carcinogen]: 0, 1, 3 UMOL (TOTAL DOSE) IN ACETONE SOLUTION 1/2 D FOR 10 DOSES, Doses [Carcinogen]: 0, 1, 3 UMOL (TOTAL DOSE) IN ACETONE SOLUTION 1/2 D FOR 10 DOSES, Doses [Promoter]: 2.5 UG IN ACETONE 3/WK BEGINNING 10 D POST LAST CARCINOGEN DOSE AND CONTINUING FOR 20 WK (STUDY DURATION: 23 WK), Route [Carcinogen]: DERMAL, Strain/Sex: CD-1/FEMALE); “skin: tumor” (Carcinogen: BENZO[J]FLUORANTHENE, 205-82-3, Doses [Carcinogen]: 0.3, 1, 2 UMOL (TOTAL DOSE) ADMINISTERED IN SUBDOSES 1/2 D, Doses [Carcinogen]: 0.3, 1, 2 UMOL (TOTAL DOSE) ADMINISTERED IN SUBDOSES 1/2 D, Doses [Promoter]: 2.5 UG IN 100 µL ACETONE 3/WK FOR 20 WK BEGINNING 10 D POST LAST CARCINOGEN DOSE (STUDY DURATION: 27 WK), Route [Carcinogen]: DERMAL, Strain/Sex: CD-1/FEMALE); “skin: tumor” (Carcinogen: BENZO[K]FLUORANTHENE, 207-08-9, Doses [Carcinogen]: 4 UMOL (TOTAL DOSE) ADMINISTERED IN 10 SUBDOSES 1/2 D, Doses [Promoter]: 2.5 UG IN 0.1 ML ACETONE 3/WK FOR 30 WK BEGINNING 10 D POST CARCINOGEN TREATMENT (STUDY DURATION: 33 WK), Route [Carcinogen]: DERMAL, Strain/Sex: CRL:CD-1/FEMALE). The outcome was “skin: tumor” (Carcinogen: CAPTAN, 133-06-2, Doses [Carcinogen]: 450 MG/KG BW IN 200 µL DMSO 3/WK FOR 3 WK, Doses [Promoter]: 0, 5 UG IN 100 µL ACETONE 3/WK FOR 51 WK BEGINNING 1 WK POST CARCINOGEN TREATMENT (STUDY DURATION: 54 WK), Route [Carcinogen]: DERMAL, Strain/Sex: SWISS/FEMALE); “skin: tumor” (Carcinogen: CARBARYL, 63-25-2, Doses [Carcinogen]: 100 MG/KG IN 100 µL ACETONE 3/WK FOR 3 WK, Doses [Promoter]: 0, 5 UG IN 100 µL ACETONE 3/WK FOR 51 WK BEGINNING 1 WK POST CARCINOGEN TREATMENT (STUDY DURATION: 52 WK), Route [Carcinogen]: DERMAL, Strain/Sex: SWISS/FEMALE); “skin: papilloma” (Carcinogen: CISPLATIN, 15663-27-1, Doses [Carcinogen]: 7.5 MG/KG IN 2.5% SALINE ONCE ON DAY 17 OF GESTATION, Doses [Promoter]: 0, 2 UG IN ACETONE 2/WK FOR 20 WK TO OFFSPRING OF MOTHERS ADMINISTERED CARCINOGEN (STUDY DURATION: 25 WK), Route [Carcinogen]: INTRAPERITONEAL, TRANSPLACENTAL, Strain/Sex: SENCAR/MALE, FEMALE); “skin: tumor” (Carcinogen: DIBENZO[A,L]PYRENE-8,9-DIHYDRODIOL, 130063-43-3, Doses [Carcinogen]: 100 NMOL IN 100 µL ACETONE ONCE, Doses [Promoter]: 3.24 NMOL/100 µL ACETONE 2/WK BEGINNING 2 WK POST CARCINOGEN DOSE AND CONTINUING FOR 24 WK (STUDY DURATION: 27 WK), Route [Carcinogen]: DERMAL, Strain/Sex: SENCAR/FEMALE); “skin: tumor” (Carcinogen: DIBENZO[A,L]PYRENE-11,12-DIHYDRODIOL, 88191-01-9, Doses [Carcinogen]: 1 NMOL IN 100 µL ACETONE, Doses [Promoter]: 2.16 NMOL IN 100 µL ACETONE 2/WK FOR 27 WK BEGINNING 1 WK POST CARCINOGEN DOSE (STUDY DURATION: 28 WK), Route [Carcinogen]: DERMAL, Strain/Sex: SENCAR/FEMALE); “skin: tumor” (Carcinogen: DIBENZO[A,L]PYRENE-11,12-DIHYDRODIOL, 88191-01-9, Doses [Carcinogen]: 4, 20, 100 NMOL IN 100 µL ACETONE ONCE, Doses [Carcinogen]: 4, 20, 100 NMOL IN 100 µL ACETONE ONCE, Doses [Promoter]: 3.24 NMOL/100 µL ACETONE 2/WK BEGINNING 2 WK POST CARCINOGEN DOSE AND CONTINUING FOR 24 WK (STUDY DURATION: 27 WK), Route [Carcinogen]: DERMAL, Strain/Sex: SENCAR/FEMALE). In addition, the outcome (Carcinogen: DIBENZO[A,L]PYRENE-11,12-DIHYDRODIOL, 155254-86-7, Doses [Carcinogen]: 1.33, 4, 12 NMOL IN 100 ML ACETONE ONCE, Doses [Carcinogen]: 1.33, 4, 12 NMOL IN 100 ML ACETONE ONCE, Doses [Promoter]: 1.62 NMOL IN 100 ML ACETONE 2/WK FOR 28 WK BEGINNING 1 WK POST CARCINOGEN DOSE (STUDY DURATION: 30 WK), Route [Carcinogen]: DERMAL, Strain/Sex: SENCAR/FEMALE) was “skin: tumor”.
